Laboratory results reported in patent US5972698A, “Tryptase inhibitor” (Novartis Corporation, priority 1993, dated 1999).
pKi: −log10 of the molar value. *1 amine or outer side, *2 acyl side, *3 side chain or, on linkers, in order; H or OH if unused. Where a SMILES comes first, the peptide text is derived from it. CO = O=C([*:1])[*:2]

Tests used:
Human tryptase = settings: cited from earlier work
Tryptase (human) = test: Inhibition of the amidolytic activity of tryptase / equilibrium dissociation constants (Ki); assay type: biochemical
Method: h) Inhibitory activity: During the purification procedure the inhibitor was followed by measurements of its effect on the amidolytic activity of tryptase. Therefore, samples were incubated with tryptase (0.59 nM) in 50 mM Tris/HCl (pH 7.6), 150 mM NaCl, 50 μg/ml bovine lung heparin, and 0.1% (w/v) bovine serum albumin for 25 min at 37° C. The assay was started by addition of the substrate tos-Gly-Pro-Arg-pNa at a final concentration of 0.1 mM. The released nitroaniline was monitored spectrometrically at 405 nm for 3.5 min using a UVIKON 930 photometer (Kontron; Eching, Germany).
k) Determination of equilibrium constants: To determine the specificity of the inhibitor, its effect on the amidolytic activity of various serine proteinases (see Tab. 5) was determined. […] The residual enzyme activity was measured after addition of a suitable substrate.
Equilibrium dissociation constants (Ki) for the complexes of the inhibitor with individual proteases were determined essentially as described by Bieth [Bieth, 1980]. Briefly, increasing concentrations of the inhibitor were incubated with a constant concentration of the enzyme; the time necessary to reach equilibration of the enzyme-inhibitor complex was determined for each protease in preliminary experiments. Substrate was then added, and the residual enzyme activity measured. […]

[1] = Isoelectric focussing (PhastSystem); assay type: physicochemical
Method: a) SDS-PAGE and isoelectric focussing (IEF) SDS-PAGEs of the proteins were performed with 15-25% polyacrylamide gels following the procedure of Laemmli [Laemmli, 1970]. The gels were either self-prepared and run in a conventional apparatus or in the PhastSystem (Pharmacia, Sollentuna, Sweden). Isoelectric focussing was also done with the PhastSystem using the isoelectric focussing calibration kit pH 3-10.

| Compound | inhibition of tryptase (literature) (Human tryptase) | further results |
| --- | --- | --- |
| CC(C)[C@H](NC(=O)[C@H](CCCNC(=N)N)NC(=O)N[C@@H](Cc1ccccc1)C(=O)O)C(=O)N[C@H](C=O)CCCNC(=N)N [antipain] ({Phe-CO}-Arg-Val-Arg-aldehyde) |  | Ki values for the complexes with tryptase (literature) (Human tryptase): micromolar range |
| CC(=O)N[C@@H](CC(C)C)C(=O)N[C@@H](CC(C)C)C(=O)N[C@H](C=O)CCCNC(=N)N [leupeptin] |  | Ki values for the complexes with tryptase (literature) (Human tryptase): micromolar range |
| O=S(=O)(F)Cc1ccccc1 [phenylmethylsulfonyl fluoride] | inhibited |  |
| C1 -esterase inhibitor: naturally occurring antiproteinase | not inhibited |  |
| alpha1 -proteinase inhibitor: naturally occurring antiproteinase | not inhibited |  |
| alpha2 -macroglobulin: naturally occurring antiproteinase | not inhibited |  |
| antithrombin III | not inhibited |  |
| aprotinin | not affected |  |
| ecotin: proteinase inhibitor | not affected |  |
| hirudin | not affected |  |
| rLDTI-C: recombinant form C inhibitor expressed in Saccharomyces cerevisiae with secretion vector pVT102U/alpha and strain S-78 (KKVCACPKILKPVCGSDGRTYANSCIARCNGVSIKSEGSCPTGILN) |  | pKi (Tryptase (human); Ki for the inhibition of two of the four subunits of the tryptase-tetramer, substrate Tos-Gly-Pro-Arg-pNA, read-out: Ki (second Ki column)): 8.72; maximal inhibition of human tryptase (Tryptase (human); substrate tos-Gly-Pro-Arg-pNa): ~ 50%; isoelectric point [1]: > 10 pH |
| tosyl-L-lysine chloromethyl ketone | inhibited |  |
